Experimental data from patent publication EP1946778A1, “Active substance combination for the treatment of diabetes” (Laboratorios del Dr. Esteve S.A., priority 2007, dated 2008).

Legend:
[1] = Plasma glycerol and triacylglycerol assay, female DIO Wistar rats (COMPOUND C); type: in vivo; settings: 30 mg/kg po once daily for 28 days
Method: (§1) The experiment was performed on female Wistar rats (originally in the weight range 250-300g). Animals were maintained on a reverse phase light-dark cycle (lights off for 8 h from 09.30-17.30 h) during which time the room was illuminated by red light. Animals had free access to powdered high fat diet (VRF1 plus 20% lard), ground chocolate, ground peanuts and tap water at all times. The three different diets were contained in separate glass feeding jars with aluminium lids with a 3-4 cm hole cut in it to allow access to the food. Animals were housed in pairs for twelve weeks for the induction of obesity. Animals were then housed singly in polypropylene cages with wire grid floors to enable the food intake of each rat to be recorded. Polypropylene trays with cage pads were placed beneath each cage to detect any food spillage. Animals were accustomed to these new conditions (individual housing and the wire-grid floor cages) for at least 14 days before the start of the baseline readings. […]
Plasma triacylglycerol was determined by modification of a discrete assay kit (Sigma Triglyceride determination kit, Cat No. TR0100) to a 96-well format. […]
A 2.5 mg/ml triolein equivalent glycerol standard was obtained from Sigma. […] Optical density readings were then transferred to GraphPad Prism and unknown values extrapolated from a linear regression fit to the standard curve. […]

[2] = Plasma leptin assay, female DIO Wistar rats (COMPOUND C); type: in vivo; settings: 30 mg/kg po once daily for 28 days
Method: as §1
Plasma leptin concentration was determined using Assay Designs rat leptin enzyme immunometric assay kits (Cat No. 900-015) according to the manufacturer's regular protocol. […] Optical density at 450 nm was determined using a Molecular Devices VERSAmax tunable microplate reader and readings transferred to GraphPad Prism. […]

[3] = Carcass composition (water, fat, protein, ash), female DIO Wistar rats (COMPOUND C); type: in vivo; settings: 30 mg/kg po once daily for 28 days
Method: (§2) The experiment was performed on female Wistar rats (originally in the weight range 250-300g). Animals were maintained on a reverse phase light-dark cycle (lights off for 8 h from 09.30-17.30 h) during which time the room was illuminated by red light. Animals had free access to powdered high fat diet (VRF1 plus 20% lard), ground chocolate, ground peanuts and tap water at all times. The three different diets were contained in separate glass feeding jars with aluminium lids with a 3-4 cm hole cut in it to allow access to the food. Animals were housed in pairs for twelve weeks for the induction of obesity. Animals were then housed singly in polypropylene cages with wire grid floors to enable the food intake of each rat to be recorded. Polypropylene trays with cage pads were placed beneath each cage to detect any food spillage. Animals were accustomed to these new conditions (individual housing and the wire-grid floor cages) for at least 14 days before the start of the baseline readings.
(§3) Approximately a week before the start of the study, animals were weighed (to the nearest 0.1 g using an electronic top-pan balance) and allocated into 2 weight-matched treatment groups, each containing 10 animals. Following a 7 day baseline run-in period, during which the animals were dosed by the appropriate route (eg orally) once a day with vehicle (1% methylcellulose; 1 ml/kg) or the test drug, ie COMPOUND C (30 mg/kg po) once daily for 28 days.
Total ether-extractable fat in the freeze-dried samples was estimated by the Soxhlet principle using a Foss Soxtec HT2 system. The protocol employed was based on the manufacturer's recommendations for meat samples, although freeze-dried samples obviated the necessity for either a fat hydrolysis step or mixing the sample with sand to ensure efficient extraction.
Samples of approximately 1 g were accurately weighed into 26 mm x 60 mm cellulose extraction thimbles which were then plugged with approximately 0.8 g cotton wool. Sample fat was extracted into pre-weighed (including a few boiling chips) standard metal extraction cups using 70 ml of petroleum ether at 40-60°C, a circulator temperature of 115°C and a cooling flow rate of 2 l/min. A boiling stage of 25 min was employed, followed by a 40 min wash stage. A 10 min drying stage sufficed to remove ether from the extraction cups.
Percentage fat in the freeze-dried sample was calculated as follows: % fat = [100 × (final cup weight-initial cup weight)]/sample weight [formula]
Percentage fat in the original sample was calculated using the % water as follows: % fat in original sample = % fat × [(100-%water)/100] [formula]
Total protein in the freeze-dried samples was estimated using the Kjeldahl principle. A micro-Kjeldahl procedure was performed using a Foss 2012 digestion block and a Foss 2200 distilling unit. The protocol used was based on the manufacturer's recommendations for meat samples.
Approximately 0.3 g of freeze-dried sample was accurately weighed into 100 ml digestion tubes (Foss UK Ltd) in racks of 12 tubes. Each rack included at least one blank tube to determine a reagent blank. To each tube was added two Kjeltabs CQ and one Antifoam S tablet followed by 10 ml of 98% sulphuric acid. Samples were digested at 420°C for 1 h to convert protein into ammonium sulphate. Once tubes had cooled, free ammonia was liberated by the addition of an excess of 40% NaOH and steam distilled into 30 ml of 4% boric acid indicator solution. Ammonia was then determined by titration against volumetric grade 0.1 M HCl using a Brand 25 ml digital burette. Nitrogen and protein content of the samples were calculated as follows: % nitrogen = [(sample titration-blank titration) × 0.1401]/sample weight(g)%protein = % nitrogen × 6.25 [formula]
Total ash in the freeze-dried samples was estimated by determining the non-combustible ash remaining after firing samples at high temperatures using a Carbolite OAF 11/1 muffle furnace. […]

[4] = Plasma glycerol and triacylglycerol assay, female DIO Wistar rats (COMPOUND A, COMPOUND B); type: in vivo; settings: obese female Wistar rats; for reduction of plasma concentrations of triacylglycerol / reduction of plasma glycerol levels: 30 mg/kg po once daily for 28 days, vs vehicle
Method: as §2, with “250-300 g). The rats were housed in pairs in polypropylene cages with solid floors and sawdust bedding at a temperature of 21±4°C and 55±20% humidity.” for “250-300g).”, “aluminum” for “aluminium”
as §3, with “into 3” for “into 2”, “containing 9-10” for “containing 10”, “vehicle (0.5% hydroxy-propyl-methylcellulose [HPMC];” for “vehicle (1% methylcellulose;”, “COMPOUND A (10mg and 30 mg/kg po) and COMPOUND B (10 mg and 30” for “COMPOUND C (30”
Terminal blood samples via cardiac puncture were taken from the animals immediately after death into Sarstedt 4.5 ml lithium-heparin tubes (Cat No. 32.331). Tubes were then centrifuged at 1,500 g for 5 minutes at 4°C and the plasma removed and immediately frozen on dry ice (as 3 aliquots per sample in sealed Eppendorf tubes). Plasma samples were stored at -75°C until required for analysis. All determinations were performed on plasma samples that had been thawed only once.
Plasma triacylglycerol was determined by modification of a discrete assay kit (Sigma Triglyceride determination kit, Cat No. TR0100) to a 96-well format. The kit actually determines liberated glycerol following enzymic hydrolysis of triacylglycerol to free fatty acids and glycerol (1 mole glycerol per mole of triacylglycerol). For this reason, correction for the glycerol concentration originally present in the plasma is required. Plasma samples were, therefore, assayed in the absence (free plasma glycerol) or presence (total triacylglycerol) of lipoprotein lipase. Subtraction of free glycerol from total triacylglycerol concentration then derives the true triacylglycerol concentration.
A 2.5 mg/ml triolein equivalent glycerol standard was obtained from Sigma. The supplied Sigma mM conversion factor for this batch was 1.13 (ie 2.83 mM glycerol). A 10 mg/ml glycerol stock solution was prepared in saline and then diluted in saline to create a series of standard concentrations from 0.218 to 4.34 mM. Standards and plasma samples (undiluted) were pipetted into the 96-well plates as 10 µl additions in duplicate. Assay plates and reagents were preheated at 37°C and the reaction started by adding 200 µl of either the glycerol or total triacylglycerol reagent (reconstituted as per manufacturer's protocol) followed by incubation at 37°C for 5 minutes after which optical density at 540 nm was determined using a Molecular Devices VERSAmax tunable microplate reader. Optical density readings were then transferred to GraphPad Prism and unknown values extrapolated from a linear regression fit to the standard curve. The assay was linear up to the highest glycerol standard employed (4.34 mM). Subtraction of the glycerol concentration in the plasma samples from the total triacylglycerol concentration derived the true triacylglycerol concentration.

[5] = Feeding study in female DIO Wistar rats (COMPOUND A, COMPOUND B): body weight and food intake; type: in vivo; settings: dietary-induced obese female Wistar rats; 10 mg/kg po once daily; end of the 28 day drug treatment period
Method: as §2, with “250-300 g). The rats were housed in pairs in polypropylene cages with solid floors and sawdust bedding at a temperature of 21±4°C and 55±20% humidity.” for “250-300g).”, “aluminum” for “aluminium”
Approximately a week before the start of the study, animals were weighed (to the nearest 0.1 g using an electronic top-pan balance) and allocated into 3 weight-matched treatment groups, each containing 9-10 animals. […]
Food intake and body weight were measured once daily. […]

[6] = Plasma NEFA assay, female DIO Wistar rats (COMPOUND A, COMPOUND B); type: in vivo; settings: obese female Wistar rats; 30 mg/kg po once daily for 28 days
Method: as §1, with “250-300 g). The rats were housed in pairs in polypropylene cages with solid floors and sawdust bedding at a temperature of 21±4°C and 55±20% humidity.” for “250-300g).”, “aluminum” for “aluminium”, “Animals were housed in pairs for twelve weeks for the induction of obesity.” left out, “Polypropylene trays with cage pads were placed beneath each cage to detect any food spillage.” left out
Non-esterified (or free) fatty acids (NEFA) were determined by modification of a commercial clinical analyser assay kit (Wako NEFA C ACS-ACOD method) to a 96-well format. […] After exactly 10 minutes, 150 µl of reagent B was added and the plate incubated for a further 10 minutes after which optical density at 540 nm was determined using a Molecular Devices VERSAmax tunable microplate reader. […]

[7] = Plasma leptin assay, female DIO Wistar rats (COMPOUND A, COMPOUND B); type: in vivo; settings: obese female Wistar rats
Method: as §1, with “250-300 g). The rats were housed in pairs in polypropylene cages with solid floors and sawdust bedding at a temperature of 21±4°C and 55±20% humidity.” for “250-300g).”, “aluminum” for “aluminium”, “Polypropylene trays with cage pads were placed beneath each cage to detect any food spillage.” left out
Plasma leptin concentration was determined using Assay Designs rat leptin enzyme immunometric assay kits (Cat No. 900-015) according to the manufacturer's regular protocol. […]
Optical density at 450 nm was determined using a Molecular Devices VERSAmax tunable microplate reader and readings transferred to GraphPad Prism. […]

[8] = olanzapine treatment of patients; literature; cited from earlier work
[9] = 10 mg/kg po once daily for 28 days

Which “reduction of plasma glycerol levels compared to the vehicle-treated control group” value [1] does the source give for `O=C(NN1CCCCC1)C1=NN(c2ccc(Cl)cc2Cl)C(c2ccc(Cl)cc2)C1` (racemic) [COMPOUND C, (rac)-N-piperidinyl-5-(4-chlorophenyl)-1-(2,4-dichlorophenyl)-4,5-dihydro-1H-pyrazole-3-carboxamide] here?
Its value is 23.4%.

And the “reduction of triacylglycerol levels compared to the vehicle-treated control group” value [1]?
The value was 37.2%.

And the “plasma leptin concentrations, change compared to the vehicle-treated control group” value [2]?
The value was -48.2%.

What about the “decrease in absolute body fat compared to the vehicle-treated control group” value [3] of the same molecule?
Its value is 57.7 g.

And the “decrease in body fat as share of the total weight-loss observed” value [3]?
The value was 79.3%.

And the “decrease in fat mass compared to the vehicle-treated control group” value [3]?
The value was 36.9%.

And the “reduction of total carcass water compared to the vehicle-treated control” value [3]?
The value was 11.8 g.

And the percentage ash content ([3]; vehicle 2.77%)?
Its percentage ash content is 3.26%.

What about the percentage protein content ([3]; vehicle 15.5%) of the same molecule?
The percentage protein content was 17.1%.

And the “fat content as a percentage of carcass weight” value ([3]; vehicle 31.9%)?
Its value is 24.2%.

And the “percentage water content of the carcasses” value ([3]; vehicle 49.0%)?
The value was 54.3%.

What about the “mean body fat mass” value ([3]; vehicle 156.3 g) of the same molecule?
The value was 98.6 g.

What about the “reduction of final carcass weight” value ([3]; vs vehicle (473.0 g)) of the same molecule?
Its value is 72.8 g.

Which results are given for `O=C(NN1CCCCC1)C1=NN(c2ccc(Cl)cc2Cl)[C@@H](c2ccc(Cl)cc2)C1` [COMPOUND A, (R)-N-piperidinyl-5-(4-chlorophenyl)-1-(2,4-dichlorophenyl)-4,5-dihydro-1H-pyrazole-3-carboxamide]?
plasma glycerol levels, effect vs vehicle [4, 9]: no significant effect; plasma triacylglycerol concentrations, effect vs vehicle [4, 9]: no significant effect; reduction of plasma concentrations of triacylglycerol [4]: 42.0%; reduction of plasma glycerol levels [4]: 33.6%

With `O=C(NN1CCCCC1)C1=NN(c2ccc(Cl)cc2Cl)[C@H](c2ccc(Cl)cc2)C1` [COMPOUND B, (S)-N-piperidinyl-5-(4-chlorophenyl)-1-(2,4-dichlorophenyl)-4,5-dihydro-1H-pyrazole-3-carboxamide] as the molecule, how does the “body weights lower than those of the vehicle-treated controls” value [5] read?
Its value is 4.0%.

And the “decrease of plasma NEFA levels compared to the vehicle-treated control group” value [6]?
The value was 24.4%.

What about the “reduction of plasma concentrations of triacylglycerol” value [4] of the same molecule?
The value was 52.1%.

And the “reduction of plasma glycerol levels” value [4]?
Its value is 38.9%.

And the “decrease of plasma leptin levels compared to the vehicle-treated control group” value [7, 9]?
Its value is 13.7%.

And the “decrease of plasma leptin levels compared to the vehicle-treated control group” value ([7]; 30 mg/kg po once daily for 28 days)?
Its value is 26.2%.

With `Cc1cc2c(s1)Nc1ccccc1N=C2N1CCN(C)CC1` [olanzapine] as the molecule, how does the “mean increase in body weight” value [8] read?
The value was ~ 5 kg.
